Experimental data from PubChem BioAssay (NCI).
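All cell lines were grown in 96-well plates and treated with compound for 48 hours. Abbreviation: GI50, concentration required for 50% inhibition of growth. At the TGI there is no net growth.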

Tests used:
Experiment in all cases: NCI anticancer screen, dose series, 48 h
SK-MEL-5 melanoma = test system: SK-MEL-5 melanoma
SW-620 colon = test system: SW-620 colon
HL-60(TB) leukemia = test system: HL-60(TB) leukemia
HOP-92 NSCLC = test system: HOP-92 NSCLC
TK-10 renal = test system: TK-10 renal
MCF7 breast = test system: MCF7 breast
MOLT-4 leukemia = test system: MOLT-4 leukemia
SK-OV-3 ovarian = test system: SK-OV-3 ovarian
OVCAR-3 ovarian = test system: OVCAR-3 ovarian
OVCAR-8 ovarian = test system: OVCAR-8 ovarian
KM12 colon = test system: KM12 colon
HCC-2998 colon = test system: HCC-2998 colon
NCI-H226 lung = test system: NCI-H226 lung
UO-31 renal = test system: UO-31 renal
PC-3 prostate = test system: PC-3 prostate
RXF 393 renal = test system: RXF 393 renal
SF-268 CNS = test system: SF-268 CNS
A498 renal = test system: A498 renal
ACHN renal = test system: ACHN renal
NCI-H23 lung = test system: NCI-H23 lung
HOP-62 NSCLC = test system: HOP-62 NSCLC
RPMI-8226 leukemia = test system: RPMI-8226 leukemia
OVCAR-4 ovarian = test system: OVCAR-4 ovarian
UACC-257 melanoma = test system: UACC-257 melanoma
K-562 leukemia = test system: K-562 leukemia
SNB-75 CNS = test system: SNB-75 CNS
A549 NSCLC = test system: A549 NSCLC
SR leukemia = test system: SR leukemia
COLO 205 colon = test system: COLO 205 colon
SN12C renal = test system: SN12C renal
NCI-H460 lung = test system: NCI-H460 lung
NCI-H522 lung = test system: NCI-H522 lung
LOX IMVI melanoma = test system: LOX IMVI melanoma
HCT-116 colon = test system: HCT-116 colon
OVCAR-5 ovarian = test system: OVCAR-5 ovarian
CCRF-CEM leukemia = test system: CCRF-CEM leukemia
M14 melanoma = test system: M14 melanoma
786-0 renal = test system: 786-0 renal
SF-295 CNS = test system: SF-295 CNS
HCT-15 colon = test system: HCT-15 colon
UACC-62 melanoma = test system: UACC-62 melanoma
MDA-MB-435 = test system: MDA-MB-435
T-47D breast = test system: T-47D breast
EKVX NSCLC = test system: EKVX NSCLC
SK-MEL-2 melanoma = test system: SK-MEL-2 melanoma
SNB-19 CNS = test system: SNB-19 CNS
U251 CNS = test system: U251 CNS
CAKI-1 renal = test system: CAKI-1 renal
IGROV1 ovarian = test system: IGROV1 ovarian
HS 578T breast = test system: HS 578T breast
HT29 colon = test system: HT29 colon
DU-145 prostate = test system: DU-145 prostate
SF-539 CNS = test system: SF-539 CNS
MDA-MB-231 breast = test system: MDA-MB-231 breast
MALME-3M melanoma = test system: MALME-3M melanoma
SK-MEL-28 melanoma = test system: SK-MEL-28 melanoma

COc1ccc(-c2n[nH]nc2-c2cc(OC)c(OC)c(OC)c2)cc1
GI50 (SK-MEL-5 melanoma): < 0.01 µM
TGI (SK-MEL-5 melanoma): 0.0224 µM
GI50 (SW-620 colon): < 0.01 µM
TGI (SW-620 colon): > 100 µM
GI50 (HL-60(TB) leukemia): < 0.01 µM
TGI (HL-60(TB) leukemia): < 0.01 µM
GI50 (HOP-92 NSCLC): < 0.0195 µM
TGI (HOP-92 NSCLC): 30.6 µM
TGI (TK-10 renal): 50.2 µM
GI50 (MCF7 breast): < 0.01 µM
TGI (MCF7 breast): > 80.7 µM
GI50 (MOLT-4 leukemia): 0.0185 µM
GI50 (SK-OV-3 ovarian): < 0.01 µM
TGI (SK-OV-3 ovarian): 0.44 µM
GI50 (OVCAR-3 ovarian): < 0.01 µM
TGI (OVCAR-3 ovarian): < 0.01 µM
GI50 (OVCAR-8 ovarian): < 0.01 µM
TGI (OVCAR-8 ovarian): 22 µM
GI50 (KM12 colon): < 0.01 µM
TGI (KM12 colon): 0.0445 µM
GI50 (HCC-2998 colon): 0.0189 µM
TGI (HCC-2998 colon): 19.5 µM
GI50 (NCI-H226 lung): < 0.0225 µM
TGI (NCI-H226 lung): 82.7 µM
GI50 (UO-31 renal): 0.207 µM
TGI (UO-31 renal): 28 µM
GI50 (PC-3 prostate): 0.0638 µM
TGI (PC-3 prostate): > 100 µM
GI50 (RXF 393 renal): < 0.01 µM
TGI (RXF 393 renal): 26.2 µM
GI50 (SF-268 CNS): 0.0156 µM
TGI (SF-268 CNS): > 100 µM
GI50 (A498 renal): < 0.01 µM
TGI (A498 renal): < 0.0277 µM
GI50 (ACHN renal): 0.0169 µM
TGI (ACHN renal): > 100 µM
GI50 (NCI-H23 lung): < 0.01 µM
TGI (NCI-H23 lung): 36.4 µM
GI50 (HOP-62 NSCLC): < 0.01 µM
TGI (HOP-62 NSCLC): > 73.2 µM
GI50 (RPMI-8226 leukemia): < 0.01 µM
TGI (RPMI-8226 leukemia): > 32.4 µM
GI50 (OVCAR-4 ovarian): < 0.0144 µM
TGI (OVCAR-4 ovarian): 43.3 µM
GI50 (UACC-257 melanoma): < 0.01 µM
TGI (UACC-257 melanoma): 31.2 µM
GI50 (K-562 leukemia): < 0.01 µM
TGI (K-562 leukemia): > 100 µM
GI50 (SNB-75 CNS): < 0.01 µM
TGI (SNB-75 CNS): 92.9 µM
GI50 (A549 NSCLC): < 0.01 µM
TGI (A549 NSCLC): 38.3 µM
GI50 (SR leukemia): < 0.01 µM
TGI (SR leukemia): > 47.9 µM
GI50 (COLO 205 colon): 0.0358 µM
TGI (COLO 205 colon): 0.132 µM
GI50 (SN12C renal): < 0.01 µM
TGI (SN12C renal): > 100 µM
GI50 (NCI-H460 lung): < 0.01 µM
TGI (NCI-H460 lung): 26.3 µM
GI50 (NCI-H522 lung): < 0.01 µM
TGI (NCI-H522 lung): < 0.01 µM
GI50 (LOX IMVI melanoma): < 0.01 µM
TGI (LOX IMVI melanoma): > 57 µM
GI50 (HCT-116 colon): < 0.01 µM
TGI (HCT-116 colon): > 100 µM
GI50 (OVCAR-5 ovarian): < 0.01 µM
TGI (OVCAR-5 ovarian): > 100 µM
GI50 (CCRF-CEM leukemia): < 0.01 µM
TGI (CCRF-CEM leukemia): > 40.8 µM
GI50 (M14 melanoma): < 0.01 µM
TGI (M14 melanoma): 17.8 µM
GI50 (786-0 renal): < 0.01 µM
TGI (786-0 renal): 17.5 µM
GI50 (SF-295 CNS): < 0.01 µM
TGI (SF-295 CNS): > 100 µM
GI50 (HCT-15 colon): < 0.01 µM
TGI (HCT-15 colon): > 100 µM
GI50 (UACC-62 melanoma): < 0.01 µM
TGI (UACC-62 melanoma): 24.6 µM
GI50 (MDA-MB-435): < 0.01 µM
TGI (MDA-MB-435): < 0.01 µM
GI50 (T-47D breast): 2.66 µM
TGI (T-47D breast): 57.3 µM
GI50 (EKVX NSCLC): < 0.01 µM
TGI (EKVX NSCLC): 29.6 µM
GI50 (SK-MEL-2 melanoma): < 0.01 µM
TGI (SK-MEL-2 melanoma): 43.4 µM
TGI (SNB-19 CNS): > 100 µM
GI50 (U251 CNS): < 0.01 µM
GI50 (CAKI-1 renal): < 0.01 µM
TGI (CAKI-1 renal): > 56.4 µM
GI50 (IGROV1 ovarian): < 0.01 µM
TGI (IGROV1 ovarian): 9.23 µM
GI50 (HS 578T breast): < 0.01 µM
TGI (HS 578T breast): > 83.9 µM
GI50 (HT29 colon): < 0.01 µM
TGI (HT29 colon): 0.0481 µM

COc1ccc(Cn2cc3c(c2-c2ccccc2)CC(C)(C)c2cnoc2-3)cc1
GI50 (SK-MEL-5 melanoma): 1.6 µM
TGI (SK-MEL-5 melanoma): 9.61 µM
GI50 (SW-620 colon): 0.806 µM
TGI (SW-620 colon): > 100 µM
GI50 (HL-60(TB) leukemia): 0.82 µM
TGI (HL-60(TB) leukemia): 4.29 µM
GI50 (HOP-92 NSCLC): 1.96 µM
TGI (HOP-92 NSCLC): 32.7 µM
GI50 (DU-145 prostate): 1.78 µM
TGI (DU-145 prostate): 7.5 µM
GI50 (TK-10 renal): 2.91 µM
TGI (TK-10 renal): > 100 µM
GI50 (MCF7 breast): 0.87 µM
TGI (MCF7 breast): > 100 µM
GI50 (MOLT-4 leukemia): 2.82 µM
TGI (MOLT-4 leukemia): > 100 µM
GI50 (SK-OV-3 ovarian): 4.09 µM
TGI (SK-OV-3 ovarian): > 100 µM
GI50 (OVCAR-3 ovarian): 0.662 µM
TGI (OVCAR-3 ovarian): 3.28 µM
GI50 (OVCAR-8 ovarian): 4.66 µM
TGI (OVCAR-8 ovarian): > 100 µM
GI50 (KM12 colon): 0.783 µM
TGI (KM12 colon): > 100 µM
GI50 (HCC-2998 colon): 2.91 µM
TGI (HCC-2998 colon): > 100 µM
GI50 (NCI-H226 lung): 4.19 µM
TGI (NCI-H226 lung): > 100 µM
GI50 (UO-31 renal): 3.08 µM
TGI (UO-31 renal): > 100 µM
GI50 (PC-3 prostate): 3.27 µM
TGI (PC-3 prostate): > 100 µM
GI50 (RXF 393 renal): 2.45 µM
TGI (RXF 393 renal): > 100 µM
GI50 (SF-268 CNS): 3.92 µM
TGI (SF-268 CNS): > 100 µM
GI50 (A498 renal): 1.4 µM
TGI (A498 renal): 7.72 µM
GI50 (ACHN renal): 5.06 µM
TGI (ACHN renal): > 100 µM
GI50 (NCI-H23 lung): 2.29 µM
TGI (NCI-H23 lung): > 100 µM
GI50 (HOP-62 NSCLC): 4.05 µM
TGI (HOP-62 NSCLC): > 100 µM
GI50 (RPMI-8226 leukemia): 3.09 µM
TGI (RPMI-8226 leukemia): > 100 µM
GI50 (SF-539 CNS): 2.18 µM
TGI (SF-539 CNS): 6.02 µM
GI50 (OVCAR-4 ovarian): 5.23 µM
TGI (OVCAR-4 ovarian): > 100 µM
GI50 (MDA-MB-231 breast): 3.46 µM
TGI (MDA-MB-231 breast): > 100 µM
GI50 (UACC-257 melanoma): 9.64 µM
TGI (UACC-257 melanoma): > 100 µM
GI50 (K-562 leukemia): 0.377 µM
TGI (K-562 leukemia): > 100 µM
GI50 (SNB-75 CNS): 1.63 µM
TGI (SNB-75 CNS): 6.15 µM
GI50 (A549 NSCLC): 3.17 µM
TGI (A549 NSCLC): > 100 µM
GI50 (SR leukemia): 0.483 µM
TGI (SR leukemia): > 100 µM
GI50 (COLO 205 colon): 1.65 µM
TGI (COLO 205 colon): 5.1 µM
GI50 (SN12C renal): 4.46 µM
TGI (SN12C renal): > 100 µM
GI50 (NCI-H460 lung): 2.17 µM
TGI (NCI-H460 lung): > 100 µM
GI50 (NCI-H522 lung): 0.314 µM
TGI (NCI-H522 lung): 1.9 µM
GI50 (LOX IMVI melanoma): 3.55 µM
TGI (LOX IMVI melanoma): > 100 µM
GI50 (HCT-116 colon): 1.47 µM
TGI (HCT-116 colon): > 100 µM
GI50 (OVCAR-5 ovarian): 4.39 µM
TGI (OVCAR-5 ovarian): > 100 µM
GI50 (CCRF-CEM leukemia): 2.47 µM
TGI (CCRF-CEM leukemia): > 100 µM
GI50 (MALME-3M melanoma): 1.63 µM
TGI (MALME-3M melanoma): > 100 µM
GI50 (M14 melanoma): 2.03 µM
TGI (M14 melanoma): > 100 µM
GI50 (786-0 renal): 4.1 µM
TGI (786-0 renal): > 100 µM
GI50 (SF-295 CNS): 0.732 µM
TGI (SF-295 CNS): 11.6 µM
GI50 (HCT-15 colon): 1.02 µM
TGI (HCT-15 colon): > 100 µM
GI50 (UACC-62 melanoma): 0.958 µM
TGI (UACC-62 melanoma): > 100 µM
GI50 (MDA-MB-435): 0.279 µM
TGI (MDA-MB-435): 1.01 µM
GI50 (T-47D breast): 2.51 µM
TGI (T-47D breast): > 100 µM
GI50 (EKVX NSCLC): 1.99 µM
TGI (EKVX NSCLC): > 100 µM
GI50 (SK-MEL-2 melanoma): 2.9 µM
TGI (SK-MEL-2 melanoma): 53.6 µM
GI50 (SNB-19 CNS): 4.96 µM
TGI (SNB-19 CNS): > 100 µM
GI50 (U251 CNS): 2.99 µM
TGI (U251 CNS): > 100 µM
GI50 (CAKI-1 renal): 1.22 µM
TGI (CAKI-1 renal): > 100 µM
GI50 (SK-MEL-28 melanoma): 6.86 µM
TGI (SK-MEL-28 melanoma): > 100 µM
GI50 (IGROV1 ovarian): 2.3 µM
TGI (IGROV1 ovarian): > 100 µM
GI50 (HS 578T breast): 1.45 µM
TGI (HS 578T breast): 7.91 µM
GI50 (HT29 colon): 0.95 µM
TGI (HT29 colon): 7.53 µM
